# Reference: US6204220A, “Substituted 2-oxo-3-alkynoic acids and methods of use thereof” (Rutgers, The State University of New Jersey, priority 1999, dated 2001)
# Where “and” joins values, the source holds several entries; their conditions need not be identical. Equal entries are not always repeated. Entries after “also recorded” stand apart in the source; their conditions may differ. Where two headings read alike, the source gives them in different places.
# Columns and labels:
# E1 [1] = target: T1, E1 (Escherichia coli, UniProt P0AFG8); assay: Quantification of sulfhydryl groups in E1 (DTNB titration); set-up: species or system E. coli
# T1 construct: made in house; host or cells: resolved from PDHc expressed in E. coli JRG1342
# T1 sequence (P0AFG8 2-887): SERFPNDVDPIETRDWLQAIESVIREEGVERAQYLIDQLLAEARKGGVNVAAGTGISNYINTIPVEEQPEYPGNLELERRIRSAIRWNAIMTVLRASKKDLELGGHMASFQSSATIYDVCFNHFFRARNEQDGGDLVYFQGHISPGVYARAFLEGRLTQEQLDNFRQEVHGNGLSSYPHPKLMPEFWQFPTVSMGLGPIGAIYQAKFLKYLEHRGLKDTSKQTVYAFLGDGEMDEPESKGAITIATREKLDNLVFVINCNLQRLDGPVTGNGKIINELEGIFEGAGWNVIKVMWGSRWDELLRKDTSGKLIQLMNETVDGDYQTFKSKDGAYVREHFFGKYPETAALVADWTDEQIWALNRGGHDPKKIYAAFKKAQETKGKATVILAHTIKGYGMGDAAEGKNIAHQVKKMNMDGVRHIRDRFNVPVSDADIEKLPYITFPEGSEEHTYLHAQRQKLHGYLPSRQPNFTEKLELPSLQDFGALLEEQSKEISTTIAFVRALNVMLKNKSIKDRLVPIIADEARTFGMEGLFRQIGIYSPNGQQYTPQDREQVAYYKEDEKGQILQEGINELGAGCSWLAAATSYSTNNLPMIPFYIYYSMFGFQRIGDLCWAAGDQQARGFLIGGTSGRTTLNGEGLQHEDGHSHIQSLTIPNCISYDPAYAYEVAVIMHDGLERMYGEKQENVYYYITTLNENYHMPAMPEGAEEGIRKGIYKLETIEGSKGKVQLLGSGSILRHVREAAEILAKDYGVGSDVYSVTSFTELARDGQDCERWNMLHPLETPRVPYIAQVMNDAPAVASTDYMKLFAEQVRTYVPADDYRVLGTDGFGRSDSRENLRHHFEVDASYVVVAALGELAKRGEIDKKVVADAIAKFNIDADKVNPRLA
# Procedure: Quantification of the fraction of sulfhydryl groups in E1 modified by 2-oxo-3-butynoic acid. The concentration of titratable sulfhydryl groups was determined by treating samples (1 mL) containing E1 (3.02×10^-6 M) in 0.05 M KH2 PO4 buffer, pH 8.0 and 8 M urea, with small aliquots of 5,5'-dithiobis-(2-nitrobenzoic acid) from a 1 mM stock solution, and comparing the absorbencies at 412 nm with those obtained with freshly prepared cysteine solutions in the range 10×10^-6 -50×10^-6 M. Protein concentrations were determined by the Bio-Rad method with bovine serum albumin as standard.
# E2-E3 subcomplex = target: T2, E2-E3 subcomplex (Escherichia coli, UniProt P06959+P0A9P0); assay: Preincubation of E2-E3 subcomplex with inhibitor, reconstitution with unmodified E1; type: biochemical, E. coli; conditions: up to 20 min preincubation, unmodified E1 added
# T2 construct: made in house; host or cells: resolved from PDHc expressed in E. coli JRG1342
# T2 sequence (P0A9P0 2-474): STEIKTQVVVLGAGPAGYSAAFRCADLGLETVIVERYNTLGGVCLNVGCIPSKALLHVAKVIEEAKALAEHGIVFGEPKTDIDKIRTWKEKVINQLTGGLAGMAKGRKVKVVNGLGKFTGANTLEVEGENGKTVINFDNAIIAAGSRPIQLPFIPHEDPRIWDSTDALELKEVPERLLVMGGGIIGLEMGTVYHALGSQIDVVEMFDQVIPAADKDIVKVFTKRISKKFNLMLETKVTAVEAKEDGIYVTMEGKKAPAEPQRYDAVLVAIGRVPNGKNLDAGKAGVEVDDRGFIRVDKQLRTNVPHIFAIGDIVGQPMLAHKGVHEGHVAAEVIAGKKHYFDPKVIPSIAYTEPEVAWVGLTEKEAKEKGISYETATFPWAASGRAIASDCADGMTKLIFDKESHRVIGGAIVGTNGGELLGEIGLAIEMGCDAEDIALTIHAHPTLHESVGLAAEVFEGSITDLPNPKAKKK
# T2 sequence (P06959 whole entry): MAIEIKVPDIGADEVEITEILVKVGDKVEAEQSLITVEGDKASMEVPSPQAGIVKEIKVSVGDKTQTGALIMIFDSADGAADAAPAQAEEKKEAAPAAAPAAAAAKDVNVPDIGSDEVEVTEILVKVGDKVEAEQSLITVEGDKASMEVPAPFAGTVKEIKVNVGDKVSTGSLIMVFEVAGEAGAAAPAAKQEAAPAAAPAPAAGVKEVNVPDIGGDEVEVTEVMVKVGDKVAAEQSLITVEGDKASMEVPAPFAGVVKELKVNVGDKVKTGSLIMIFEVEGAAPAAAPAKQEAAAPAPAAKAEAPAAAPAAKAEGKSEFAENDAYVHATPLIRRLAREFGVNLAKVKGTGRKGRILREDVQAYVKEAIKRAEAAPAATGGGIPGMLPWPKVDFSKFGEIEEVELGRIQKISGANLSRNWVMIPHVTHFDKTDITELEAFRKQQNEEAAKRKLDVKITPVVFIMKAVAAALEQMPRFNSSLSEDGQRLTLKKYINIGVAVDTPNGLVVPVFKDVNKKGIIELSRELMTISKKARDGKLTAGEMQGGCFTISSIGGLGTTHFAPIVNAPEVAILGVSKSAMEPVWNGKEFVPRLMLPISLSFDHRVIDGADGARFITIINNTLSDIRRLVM
# Procedure: (§1) Activity and related measurements on PDHc. The overall enzymatic reaction of the PDH complex was assayed using a Varian DMS 300 spectrophotometer or the Cobas Bio (Roche Diagnostics, Somerville, N.J.) automated centrifugal analyzer, monitoring the pyruvate-dependent reduction of NAD^+ at 340 nm. The reaction medium contained in 1 mL (DMS 300) or 0.25 mL (Cobas-Bio) test volume: 0.1 M Tris-HCl, pH 8.0; 1 mM MgCl2; 2 mM sodium pyruvate; 2.5 mM NAD^+; 0.052-0.2 mM coenzyme A; 0.2 mM ThDP; and 2.6 mM DTT at 27° C. The reaction was initiated either by adding enzyme to a mixture of all other components, or by adding CoA.
# When the E2-E3 subcomplex was preincubated for different times (up to 20 min) with 2-oxo-3-butynoic acid, followed by dilution into a reaction mixture containing all components of the PDHc assay including unmodified E1 component, 100% of the activity could be reconstituted. In contrast, when resolved E1 was treated with inhibitors for different time periods before reconstitution with unmodified E2-E3 complex, a time-dependent decrease in the overall activity was observed (see FIG. 1B for resolved E1 reacted with 2-oxo-3-butynoic acid).
# resolved E1 = target: T3, resolved E1 (Escherichia coli, UniProt P0AFG8); assay: Inactivation of resolved E1 component (activity after reconstitution with E2-E3 subcomplex); type: biochemical, E. coli; conditions: for remaining activity at 3700 µM: 3.7 mM inhibitor; for remaining activity at 500 µM: 15 min, read-out: residual activity of E1; for residual activity of E1: conditions as for fluorescence analysis
# T3 construct: made in house; host or cells: resolved from PDHc expressed in E. coli JRG1342
# T3 sequence (P0AFG8 2-887): as the sequence (P0AFG8 2-887) above
# Procedure: Resolution of the E1 component from PDHc. […] PDHc was dialyzed against 50 mM Tris buffer, pH 9.0, containing 0.1 mM benzamidine.HCl, 0.15 M NaCl, 0.1 mM PMSF for 2 h, before applying to a column equilibrated and eluted with the same buffer.
# as §1
# One unit of activity is defined as the amount of NADH produced (μmol) per min per mg protein. The activity of resolved E1 was measured after reconstitution with excess E2-E3 subcomplex using the NADH assay for PDHc activity.
# Inactivation of 1-lip and 3-lip PDH complexes and resolved E1 component by 2-oxo-3-alkynoic acids. Intact 1-lip or 3-lip PDH complexes (0.050-0.1 mg) or resolved E1 component (0.05-0.09 mg) were incubated in the dark with 5 mM MgCl2, […] of 2-oxo-3-alkynoic acids in 20 mM KH2 PO4 buffer, pH 7.5 at room temperature in a total volume 0.5 mL. The initial activity (100%) was assayed prior to the addition of 2-oxo-3-alkynoic acids. Samples (50 μL) were withdrawn periodically and diluted into 1 mL of assay solution, containing all components necessary for assay of the overall activity. The activity of untreated enzyme was stable during the time of inactivation.
# [2] = Chemical stability of inhibitor on incubation in buffer before inactivation test; type: physicochemical; conditions: 1 mM, room temperature, 20 mM KH2PO4 pH 7.5, 1 mM ThDP, 5 mM MgCl2, up to 28 min
# Procedure: Kinetics of inactivation of 1-lip and 3-lip PDH complexes and resolved E1 in the presence of 2-oxo-3-alkynoic acids. Three analogs of pyruvate were tested as potential inhibitors of the PDHc and resolved E1: 2-oxo-3-butynoic acid; 2-oxo-3-pentynoic acid; and 2-oxo-3-heptynoic acid. Incubation in the presence of saturating ThDP (1 mM) and MgCl2 (5 mM) with any of the three compounds led to the loss of overall activity in a time- and concentration-dependent fashion. The plots of remaining activity versus time were biphasic: a rapid phase of inactivation was followed either by a slow phase at high concentrations of inhibitor or a plateau at low concentrations of inhibitor, as shown for 1-lip PDHc and resolved E1 with 2-oxo-3-butynoic acid in FIGS. 1A and 1B. The biphasic kinetics may be due to chemical instability of the inhibitors, especially 2-oxo-3-butynoic acid. […] When a fresh portion of 2-oxo-3-butynoicacid was added to PDHc whose activity had plateaued at about 30%, the activity rapidly declined to a new plateau at 6-8% of the original activity. In contrast, the PDHc activity continued to decline at a low rate when fresh 1-lip PDHc was added to the sample that had already declined to 30% (data not shown).
# E1 [3] = target: T1, E1; assay: Fluorescence measurements on binding to E1; set-up: species or system E. coli
# Procedure: Fluorescence measurements on the binding of 2-oxo-3-butynoic acid to E1. The fluorescence spectrum of apo-E1 (enzyme having no activity in the absence of ThDP) was measured using the SLM8100 spectrofluorimeter at 25° C. The excitation wavelength was 295 nm and the emission spectrum, presumably due to tryptophan, was recorded in the 300-450 nm range in a 1 mL or 3 mL quartz cuvette. The concentration of apo-E1 was 0.05-0.175 mg/mL in 20 mM KH2 PO4 buffer, pH 7.5. The excitation and emission monochromator slit widths were 4 nm. The V.3.0 software and KaleidaGraph computer program were used for data processing. The emission maximum for tryptophan (λ=335 nm) was determined by fitting the points from the peak using the KaleidaGraph computer program.
smiles,measurement,setting,value
"C#CC(=O)C(=O)O [2-oxo-3-butynoic acid, 2-Oxo-3-butynoic acid]",SH-groups remaining per monomer,"E1 [1]; E1 reacted to residual activity of 10%, G-25, DTNB titration, 8 M urea",3.83±0.18 SH-groups per monomer
same,SH-groups modified per monomer / subunit,E1 [1]; difference to untreated E1,1.3 SH-groups per monomer and 1.30±0.35 SH-groups per monomer
same,activity reconstituted after preincubation of E2-E3 subcomplex with inhibitor,E2-E3 subcomplex,100%
same,residual activity of E1 used for SH titration,resolved E1,10%
same,k for inactivation of E1,resolved E1; 0.11 mM inhibitor,1.73 min⁻¹
same,inhibition at 500 µM,"resolved E1; 0.5 mM inhibitor, 20 min, 1 mM ThDP, 5 mM MgCl2",~68%
same,remaining activity at 3700 µM,"resolved E1; after G-25 chromatography, read-out: residual activity of resolved E1 in the overall reaction (At)",11.5%
same,At after addition of DTT to previously inactivated E1,"resolved E1; 5 mM DTT added at At = 30%, after 60 min",40%
same,protection of E1 component from modification by pyruvate,"resolved E1; 5 mM pyruvate, 1 mM ThDP, 5 mM MgCl2",completely protected
same,reactivation of inactivated E1 by hydroxylamine,"resolved E1; 0.2, 0.5 and 1 M hydroxylamine, neutral pH, 100 min or 15 h",failed to restore activity; also recorded: failure to reactivate
same,remaining activity at 500 µM,"resolved E1; 0.5 mM inhibitor, absence of DTT",~30%
same,remaining activity at 500 µM,"resolved E1; 0.5 mM inhibitor, presence of 5 mM DTT",63%
same,remaining activity at 3700 µM,"resolved E1; E1 1.5 mg/mL, 0.1 mM ThDP, 1 mM MgCl2, read-out: E1 activity remaining before chromatography",16%
same,Pyruvate:NAD+-oxidoreductase reaction,"resolved E1; E1 treated with 3.7 mM inhibitor, At = 11.5%, after G-25",0.343 ± 0.023 μmol/min/mg protein
same,residual activity of E1,resolved E1; absence of added ThDP,78-90%
same,residual activity of E1,resolved E1; presence of ThDP,40%
same,Ki,resolved E1; dissociation constant for initial reversible complex,8.5 µM
same,kinact,"resolved E1; rate constant at saturating inhibitor, resolved E1, read-out: ki E1 (converted)",0.0298 s⁻¹
same,kinact/KI,resolved E1; read-out: ki/Ki E1,3500 M⁻¹ s⁻¹
same,"kapp, slow phase of inactivation","resolved E1; resolved E1, 0.11 mM inhibitor",0.039 min⁻¹
same,"kapp, slow phase of inactivation","resolved E1; resolved E1, 1.1 mM inhibitor",0.078 min⁻¹
same,effect of incubating the inhibitor in buffer on its ability to inactivate 1-lip PDHc,[2],no significant effect
same,decrease of fluorescence intensity,E1 [3]; 0.033 mM inhibitor,about 35%
same,decrease of fluorescence intensity,E1 [3]; 0.1 mM inhibitor,66%
same,decrease of fluorescence intensity of E1 at 335 nm,"E1 [3]; 0.11 mM, E1 0.173 mg/ml, ThDP 0.2 mM, MgCl2 1 mM",about 66%
same,"first-order rate constant of fluorescence intensity decrease, slow phase","E1 [3]; absence of added ThDP, 0.11 mM",0.042 min⁻¹
